Measurements as given in patent US20240199572A1, “COMPOUNDS, COMPOSITIONS, AND METHODS FOR TREATING TYPE 2 DIABETES AND DEMENTIA” (THE BOARD OF TRUSTEES OF THE UNIVERSITY OF ILLINOIS, priority 2021, published 2024).
Marks after values point to notes of the source that are not given here.

Tested on: C57Bl/6 male mice on a high fat diet (HFD)
Assay: High-fat diet (HFD) mice treated with CL2-57
Assay type: in vivo, mouse
Method: High-Fat Diet and Drug Treatment. C57Bl/6 male mice (Jackson Laboratories) were placed on a high fat diet (HFD) (60% kcal from fat, Envigo) at 5 weeks. At 10 weeks, mice were acclimated to hydrogel replacement of drinking water (Clear H2O) for 3 days. Then, for six weeks while HFD continued, mice received 10 mg/kg CL2-57 oral gavage Mon/Wed/Fri (vehicle: 9.5% PEG-200, 5% DMSO, 0.1% polysorbate 80 in water) plus 10 mg/kg/day CL2-57 in continuous hydrogel, or vehicle control. Mice were weighed weekly. For fast-refed studies, mice fasted for 16 hours, then refed for 4 hours. Blood glucose was measured with handheld glucometer. Sample size, chosen based on previous experience with glucose tolerance test, was ten mice per treatment. Mice were assigned to treatment groups by cage randomization upon arrival from Jackson Laboratories. Mice were assigned a unique ear tag number to enable blinded tissue analysis and data collection. Treatment and in vivo experimentation were not blinded. No animals were excluded from analysis, and no control for confounders such as cage location or treatment order was performed.
Plasma/Liver Triglycerides. Blood was collected in EDTA-coated tubes (Becton Dickinson) and centrifuged (3500 rpm, 15 minutes) to separate plasma. Livers were flash frozen in liquid nitrogen, then stored at −80° C. until homogenization in isopropanol. Triglyceride levels were measured using reagents from Wako Diagnostics per manufacturer's protocol.
Glucose Tolerance Test (GTT). After 16-hour fast, animals were administered 1.5 g/kg body weight (bwt) glucose by intraperitoneal (i.p.) injection. Glucose in tail vein blood was measured at 0, 10, 20, 30, 45, 60, and 120 minutes using a ONETOUCH® […]® glucometer (LifeScan, Inc). Additional blood was collected at multiple points between 0-30 minutes in heparinized capillary tubes and centrifuged, with plasma insulin levels determined by ELISA (ALPCO).
Insulin Sensitivity Studies. Mice were injected with 1 U/kg bwt HUMALOG® insulin or vehicle (n=3 of each per treatment group) 15 minutes before sacrifice. Liver, subcutaneous fat, and gastrocnemius were collected and homogenized in lysis buffer (50 mM Tris-HCl (pH 7.4), 100 mM NaCl, 1 mM EDTA, 1 mM EGTA, 1% Triton™ X-100, with protease/phosphatase inhibitor (Complete, Roche)). Protein concentration was determined using Bradford reagent (Bio-Rad). Denatured protein (30 μg) was separated by SDS-PAGE (Mini-PROTEAN® TGX™ Gels 10%, Bio-Rad) and transferred to 0.45 μm nitrocellulose membranes. Membranes were blocked with 5% skim milk in TBST (1×TBS+0.1% polysorbate 20) for 1 hour, incubated with primary antibodies overnight at 4° C., washed with TBST, and incubated with horseradish peroxidase (HRP)-linked secondary antibodies for 1 hour. After TBST wash, Clarity™ Western ECL Substrate (Bio-Rad) was added. Blots were imaged and analyzed using a ChemiDoc™ MP and Image Lab Ver 6.0 (Bio-Rad). Protein levels were normalized to GAPDH (muscle) or β-actin (liver, adipose) for quantification. Primary antibodies: Cell Signaling Technology 4060 (pS473Akt, RRID:AB_2315049), 13038 (pT308Akt, RRID:AB_2629447), 4691 (pan-Akt, RRID:AB_915783), 5174 (GAPDH, RRID:AB 10622025) and Sigma A2228 (3-actin, RRID:AB_476697).
qRT-PCR. For cell samples, treated cells were lysed with RLT plus lysis buffer (Qiagen). RNA was isolated with Qiagen RNEASY® Plus columns per manufacturer instructions, then reverse-transcribed to cDNA using […]® III Reverse Transcriptase (200 U/μL, Invitrogen) per supplier protocol. qPCR experiments were either performed with TAQMAN® gene expression master mix (Invitrogen) on a StepOne™ qPCR instrument or with […]® SYBR® Green SuperMix (Quanta Biosciences) on CFX Connect™ Real-Time PCR Detection System (BioRad), with fold-change quantified by ΔΔCt. […]

[1] = HFD mice, compared to vehicle control
[2] = plasma, fold change with CL2-57 vs. vehicle in HFD mice

CCOC(=O)c1cccc(NC(=O)c2sc(Cl)cc2S(=O)(=O)N(C)c2ccc(OCC)c(OCC)c2)c1 [CL2-57, ethyl 3-(5-chloro-3-(N-(3,4-diethoxyphenyl)-N-methylsulfamoyl)thiophene-2-carboxamido) benzoate]
Attenuation of HFD increases of plasma proinflammatory lipid mediators (lysophospholipids) (HFD mice): 20-60% | Brown adipose or liver mass (HFD mice): no change | Fall of liver mRNA encoding PPARα (HFD mice): 75% | Gluconeogenic metabolites (HFD mice): reduced | HFD increase of NO precursors arginine and guanidinosuccinate (HFD mice): reversed | HFD-increased liver oxysterol metabolites 7-hydroxycholesterol and 4-cholesten-3-one (HFD mice): reversed | Insulin secretion during the first 20 minutes of the GTT (HFD mice): negligible change | Liver Abcg1 expression (HFD mice): unchanged | Liver Abcg5 expression (HFD mice): significantly reduced | Liver Cyp7-a1 mRNA (HFD mice): diminishing trend | Liver Lpcat3 expression (HFD mice): significantly reduced | Liver Scd1 expression (HFD mice): significantly reduced | Liver Srebf1 mRNA (HFD mice): small increase | Liver cholesterol (reduced in HFD mice) (HFD mice): normalized to baseline | Liver free fatty acid (FFA) concentrations reduced by (HFD mice): 40-90% | Plasma FFAs decreased (HFD mice): 5-20% | Plasma levels of cholesterol and oxysterol metabolites (HFD mice): unaffected | Tissue mass composition by TD-NMR (HFD mice): shifted tissue mass from fat to lean | Circulating arachidonic acid (AA) increase over diet controls (HFD mice treated with CL2-57, vehicle 120%): 37% | Blood glucose concentrations following single i.p. glucose injection (HFD mice, GTT, vs vehicle): lower | Glucose tolerance test, total area under the curve reduced by (HFD mice, after five weeks, 2-hour test): 20% | Decrease in plasma TGs [1]: 25% | Decrease of liver G6PC expression [1]: 73% | Decrease of liver Pck1 expression [1]: 70% | HFD increases of the four gluconeogenic precursors, in particular glutamine and glycerol [1]: attenuated | Liver triglycerides (TGs) reduced by [1]: 35% | Fasting/refed glucose and insulin levels (HFD mice, initially): Little change | Adipose Akt phosphorylation (HFD mice, insulin challenge): No treatment effect | Liver Akt phosphorylation at Ser473 with insulin (HFD mice, insulin challenge): did not change | Liver Akt phosphorylation at Thr308 with insulin (HFD mice, insulin challenge): increased | Skeletal muscle insulin sensitivity versus vehicle (HFD mice, insulin challenge): dramatically increased | Mature, nuclear form of SREBP1c protein (HFD mice, liver): unchanged | Uncleaved, endoplasmic reticulum form of SREBP1c protein (HFD mice, liver): corresponding increase | mRNA levels of proinflammatory enzymes, cytokines and chemokines (COX2, NOS2, TNFα, IL-6, CCL2, CXCL10) (HFD mice, liver and adipose): substantially lowered | Liver ABCA1 protein (HFD mice, liver homogenates): increased | Liver Abca1 expression (HFD mice, liver homogenates): increased | Lean tissue mass (HFD mice, on average): gained | Weight gain (HFD mice, over six weeks, vehicle 17%): 8 % of baseline | White adipose tissue mass reduced by, proportional to body weight (HFD mice, visceral (renal) and superficial (inguinal) fat pads): > 20% | Liver monoacylglycerols (MAGs) decreased (compared to HFD alone): 83-97% | Creatinine, urea, and bilirubin (markers of global inflammation and/or organ toxicity): unaffected | 1-Arachidonoyl-GPA (20:4), HED Drug/ Chow Veh [2]: 0.65^† | 1-Arachidonoyl-GPC (20:4n6), HED Drug/ Chow Veh [2]: 0.73^†† | 1-Arachidonoyl-GPE (20:4n6), HED Drug/ Chow Veh [2]: 0.73^†† | 1-Arachidonoyl-GPI (20:4), HED Drug/ Chow Veh [2]: 0.75^† | 1-Lignoceroyl-GPC (24:0), HED Drug/ Chow Veh [2]: 0.99 | 1-Linolenoyl-GPC (18:3), HED Drug/ Chow Veh [2]: 0.85 | 1-Linoleoyl-GPA (18:2), HED Drug/ Chow Veh [2]: 0.57^†† | 1-Linoleoyl-GPC (18:2), HED Drug/ Chow Veh [2]: 0.81^† | 1-Linoleoyl-GPE (18:2), HED Drug/ Chow Veh [2]: 0.81 | 1-Linoleoyl-GPG (18:2), HED Drug/ Chow Veh [2]: 0.75^† | 1-Linoleoyl-GPI (18:2), HED Drug/ Chow Veh [2]: 0.72 | 1-Linoleoyl-GPS (18:2), HED Drug/ Chow Veh [2]: 0.39^†† | 1-Oleoy1-GPI (18:1), HED Drug/ Chow Veh [2]: 0.58^† | 1-Oleoyl-GPC (18:1), HED Drug/ Chow Veh [2]: 0.84 | 1-Oleoyl-GPE (18:1), HED Drug/ Chow Veh [2]: 0.79 | 1-Oleoyl-GPS (18:1), HED Drug/ Chow Veh [2]: 0.62^† | 1-Palmitoleoyl-GPC (16:1), HED Drug/ Chow Veh [2]: 0.81 | 1-Palmitoyl-GPA (16:0), HED Drug/ Chow Veh [2]: 0.64^†† | 1-Palmitoyl-GPC (16:0), HED Drug/ Chow Veh [2]: 0.83^† | 1-Palmitoyl-GPE (16:0), HED Drug/ Chow Veh [2]: 0.95 | 1-Palmitoyl-GPI (16:0), HED Drug/ Chow Veh [2]: 0.56^†† | 1-Palmitoyl-GPS (16:0), HED Drug/ Chow Veh [2]: 0.77 | 1-Stearoyl-GPC (18:0), HED Drug/ Chow Veh [2]: 0.94 | 1-Stearoyl-GPE (18:0), HED Drug/ Chow Veh [2]: 0.91 | 1-Stearoyl-GPI (18:0), HED Drug/ Chow Veh [2]: 0.82 | 2-Palmitoleoyl-GPC (16:1), HED Drug/ Chow Veh [2]: 1.08 | 2-Palmitoyl-GPC (16:0), HED Drug/ Chow Veh [2]: 0.81 | 2-Stearoyl-GPE (18:0), HED Drug/ Chow Veh [2]: 0.74^†† | Docosahexaenoate (DPA; 22:6n3), HED Drug/ Chow Veh [2]: 0.76 | Docosapentaenoate (n3 DPA; 22:5n3), HED Drug/ Chow Veh [2]: 0.60^† | Docosapentaenoate (n6 DPA; 22:5n6), HED Drug/ Chow Veh [2]: 0.92 | Eicosapentaenoate (EPA; 20:5n3), HED Drug/ Chow Veh [2]: 0.60^† | Sphingadienine, HED Drug/ Chow Veh [2]: 0.55^†† | Sphinganine, HED Drug/ Chow Veh [2]: 0.67^†† | Sphinganine-1-phosphate, HED Drug/ Chow Veh [2]: 0.73 | Sphingosine, HED Drug/ Chow Veh [2]: 0.73 | Sphingosine-1-phosphate, HED Drug/ Chow Veh [2]: 0.93
